Experimental data published in patent US20090022712A1, “Compositions and Methods for Inhibiting Leukocyte Function” (UNIVERSITY OF VIRGINIA PATENT FOUNDATION, priority 2006, published 2009).
Where a SMILES comes first, the peptide text is derived from it.

Experiments:
PMNs = test: PMN oxidative burst (SOD-inhibitable reduction of cytochrome c); type: cell-based, human; conditions: TNF-α-primed adherent PMNs; peptide 20 μg/ml, dhCB 1 μg/ml
Protocol: Oxidative burst of adherent PMNs was quantified by measuring the superoxide dismutase (SOD)-inhibitable reduction of cytochrome c as described (67). Briefly, PMNs (1.5×10^6/ml in HBSS-0.1% human serum albumin) were incubated in polypropylene tubes (1 hour; 37° C.) in a shaking water bath with or without the PAK peptide (20 μg/ml). PMNs were transferred to a fibrinogen-coated 96 well tissue culture plate. Cytochrome c (1.44 mg/ml) and catalase (0.062 mg/ml) (both Sigma) were added to wells with or without TNF-alpha (10 U/ml). Optical density was measured at indicated times against matched controls with SOD at 550 nm. Some PMNs were treated with dihydrocytochalasin B (dhCB) (1 μg/ml) to disrupt cell spreading on the surface (68). These samples served as negative control.

[1] = In vivo distribution of the PAK inhibitory peptide (flow cytometry); conditions: for uptake of peptide by blood neutrophils: 12 hours before sample
Protocol: Six hours after injection, PAK-positive cells were identified by flow cytometry and their expression of CD31 and CD45 was determined. In additional experiments, mice inhaled LPS after an intraperitoneal injection of the fluorescent PAK peptide. Twelve hours later, PMNs were identified in blood, lungs, and BAL by their expression of CD45, GR-1, and 7/4 and investigated for their peptide uptake. In some experiments, lungs from these mice were fixed for confocal microscopy.

[2] = system: LPS-induced PMN migration into the lung; test: Murine model of acute lung injury: LPS-induced PMN trafficking in the lung; conditions: application of the peptide in mice in vivo
Protocol: Wild type male C57B1/6 mice were obtained from Jackson Labs (Bar Harbor, Me.). […] Mice were eight to twelve weeks of age. Up to four mice were exposed to aerosolized LPS in a custom-built cylindrical chamber (20×9 cm) connected to an air nebulizer (MicroAir, Omron Healthcare, Vernon Hills, Ill.). […] Control mice were exposed to saline aerosol.
PMN recruitment into the different compartments of the lung pulmonary vasculature, interstitium, alveolar airspace) was assessed as described (81). […] After 5 minutes, mice were euthanized and non-adherent PMN were removed from the pulmonary vasculature by flushing 10 ml of PBS at 25 cm H20 through the spontaneously beating right ventricle. BAL was withdrawn and lungs were removed, minced, and digested in the presence of excess unlabeled anti-GR-1 to prevent possible binding of the injected antibody to extravascular PMN. A cell suspension was prepared by passing the digested lungs through a 70 μm cell strainer (BD Falcon, Bedford, Mass.). Total cells in BAL and lung were counted and percentage of PMNs determined by flow cytometry. […] In the lung, the expression of GR-1 was used to distinguish intravascular (CD45+7/4+GR-1^+) from interstitial (CD45+7/4+GR-1^−) PMNs, which were not reached by the injected antibody 82.

adaptor protein Nck = adaptor protein Nck (UniProt P16333); test: cell-based or functional assay

With `C=C1[C@@H](C)[C@H]2[C@H](Cc3ccccc3)NC(=O)[C@]23OC(=O)CC[C@H](O)CCC[C@@H](C)C/C=C/[C@H]3[C@@H]1O` [dihydrocytochalasin B] the “adhesion-induced oxidative burst (superoxide production)” value (PMNs) was “reduced”.

For `CSCC[C@H](NC(=O)[C@@H](NC(=O)[C@H](CO)NC(=O)[C@@H](NC(=O)[C@H](CC(N)=O)NC(=O)[C@H](CCCNC(=N)N)NC(=O)[C@H](CCSC)NC(=O)[C@@H]1CCCN1C(=O)[C@@H]1CCCN1C(=O)[C@H](C)NC(=O)[C@@H]1CCCN1C(=O)[C@@H]1CCCN1C(=O)[C@H](CCCCN)NC(=O)CNC(=O)[C@H](CCCNC(=N)N)NC(=O)[C@H](CCCNC(=N)N)NC(=O)[C@H](CCCNC(=N)N)NC(=O)[C@H](CCC(N)=O)NC(=O)[C@H](CCCNC(=N)N)NC(=O)[C@H](CCCNC(=N)N)NC(=O)[C@H](CCCCN)NC(=O)[C@H](CCCCN)NC(=O)[C@H](CCCNC(=N)N)NC(=O)CNC(=O)[C@@H](N)Cc1ccc(O)cc1)[C@@H](C)O)[C@@H](C)O)C(=O)O` [tat-PAK peptide] (H-YGRKKRRQRRRGKPPAPPMRNTSTM-OH; N-terminus and C-terminus assumed), the “PMNs in the BAL containing peptide” value ([1]; i.v. 1 mg, 12 h, LPS) was “almost all neutrophils found in the BAL are non-fluorescent”, the “PMNs in the lung containing peptide” value ([1]; i.v. 1 mg, 12 h, LPS) was “one-third” and the “uptake of peptide by blood neutrophils” value ([1]; i.v. 1 mg) was “taken up by neutrophils”. The “uptake of peptide by blood neutrophils” value ([1]; i.v. 1 mg, listed as PAK peptide) was “most PMNs are PAK peptide+”, the “share of peptide-positive lung cells that are CD45 positive” value ([1]; intraperitoneal, six hours after injection, lung cell suspension) was 80% and the adverse side effects [2] was “no apparent adverse side effects”.

“tat-PAK peptide (inhibitory PAK peptide; first proline-rich domain of PAK fused to the HIV TAT transduction sequence)” gave a F-actin content in CXCL1-stimulated human PMNs (flow cytometry) (adaptor protein Nck) of 30 fold.
